Measurements: patent US20220184008A1, “MODULATORS OF INTRACELLULAR CHLORIDE CONCENTRATION” (FONDAZIONE ISTITUTO ITALIANO DI TECNOLOGIA, priority 2019, published 2022)

What follows are compounds tested against T1, NKCC2 (Homo sapiens, UniProt Q13621) (assay: Thallium-based assay in NKCC2-transfected HEK293 cells). Settings: 10 μM; NKCC2-transfected HEK293; Table 2.
T1 construct: expressed in transfected cells; host or cells: HEK293
T1 sequence (Q13621 1-1099): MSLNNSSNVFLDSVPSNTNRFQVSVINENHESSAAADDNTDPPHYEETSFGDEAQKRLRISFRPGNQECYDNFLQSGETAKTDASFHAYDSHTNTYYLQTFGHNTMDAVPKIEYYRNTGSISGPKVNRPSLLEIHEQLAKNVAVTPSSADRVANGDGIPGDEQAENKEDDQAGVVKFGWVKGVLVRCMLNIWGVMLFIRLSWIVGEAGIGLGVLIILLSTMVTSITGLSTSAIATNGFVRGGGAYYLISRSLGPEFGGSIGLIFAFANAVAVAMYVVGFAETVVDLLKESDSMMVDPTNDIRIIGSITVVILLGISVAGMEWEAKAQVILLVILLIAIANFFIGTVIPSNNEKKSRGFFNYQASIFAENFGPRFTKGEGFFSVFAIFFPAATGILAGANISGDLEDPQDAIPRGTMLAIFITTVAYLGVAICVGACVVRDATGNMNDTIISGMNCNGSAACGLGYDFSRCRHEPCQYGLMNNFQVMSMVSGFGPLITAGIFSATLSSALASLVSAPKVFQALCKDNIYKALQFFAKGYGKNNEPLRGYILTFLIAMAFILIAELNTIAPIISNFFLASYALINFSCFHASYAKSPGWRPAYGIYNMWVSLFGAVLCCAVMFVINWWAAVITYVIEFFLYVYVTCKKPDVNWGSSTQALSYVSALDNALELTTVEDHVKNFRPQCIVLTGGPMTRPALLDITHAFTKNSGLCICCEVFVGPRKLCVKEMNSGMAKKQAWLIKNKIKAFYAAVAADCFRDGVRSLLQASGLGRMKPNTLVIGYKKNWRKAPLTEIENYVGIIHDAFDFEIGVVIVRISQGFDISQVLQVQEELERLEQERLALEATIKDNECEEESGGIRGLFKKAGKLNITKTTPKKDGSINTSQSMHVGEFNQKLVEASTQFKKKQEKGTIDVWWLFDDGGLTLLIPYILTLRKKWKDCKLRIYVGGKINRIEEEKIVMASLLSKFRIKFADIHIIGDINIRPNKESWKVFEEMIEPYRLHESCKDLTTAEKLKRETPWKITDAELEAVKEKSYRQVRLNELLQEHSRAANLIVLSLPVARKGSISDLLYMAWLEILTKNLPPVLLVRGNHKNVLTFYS
Type: cell-based
Excerpt: The Thallium-based assay is a standard assay used to measure activity of potassium transporters, like NKCC2 which is a sodium potassium and chloride co-transporter. The assay consists on the monitoring of the cells upon the application of thallium (which mimic K^+) and consequently NaCl, which entering into cells by NKCC2, activated by the presence of the chloride ions, binds the fluorescent dye, thus determining a fluorescence increase. This assay involves parallel testing in 96 wells for a quick and easy drug screening. In detail, kidney epithelial cells (HEK293) were transfected with NKCC2 transporters, or a mock construct (control). After two days, the cells were loaded with a thallium-sensitive fluorescent dye in a Cl-free medium. After 1 hour of incubation, the inhibitory activity of bumetanide and furosemide (as positive controls) and the new compounds by monitoring fluorescence upon application of thallium (to mimic K) and subsequently NaCl were tested. When entering cells by NKCC2 (activated by the presence of Cl), thallium binds the fluorescent dye and increases fluorescence. […] A decreased fluorescence in the mock-transfected cells treated with bumetanide and furosemide was observed. […] This latter result was used to normalize the fluorescence measurements obtained with the assay. In particular, the ΔF/F0 value of the mock-transfected cells (both control and treated) was subtracted from the respective ΔF/F0 value of the cells transfected with the Cl transporters. With this assay, the novel chemical entities were tested for their ability to block NKCC2 (Results in Table 2).
The arrow indicates the addition of thallium (final concentration 2 mM) and NaCl stimulus (135 mM) used to initiate the flux assay. b) Quantification of the effect of bumetanide, furosemide and 3 example compounds (3.8, 3.13, 3.17) in the thallium-based assay on NKCC2-transfected HEK293 cells. Data represents mean±sem from 5 independent experiments, and they are represented as % of the controls. *P<0.05, **P<0.01, ***P<0.001 Kruskal-Wallis Anova (Dunn's Post hoc Test); ###P<0.001 two-tailed unpaired Student t-test.

Row | Compound | inhibition at 10 µM | NKCC2 Inhibition % 10 μM Thallium Assay
1 | CCCCNc1cc(C(=O)O)cc(S(N)(=O)=O)c1Oc1ccccc1 [Bumetanide, reference compound] | 99% | –
2 | CCCCNc1ccc([N+](=O)[O-])cc1S(N)(=O)=O [Compound 1.6, 2-(butylamino)-5-nitro-benzenesulfonamide] | 4% | –
3 | CCCCCCNc1ccc([N+](=O)[O-])cc1S(N)(=O)=O [Compound 1.7, 2-(hexylamino)-5-nitro-benzenesulfonamide] | 10% | –
4 | CCCCCCCCNc1ccc([N+](=O)[O-])cc1S(N)(=O)=O [Compound 1.8, 5-nitro-2-(octylamino)benzenesulfonamide] | 10% | –
5 | CC(C)(C)CCNc1ccc([N+](=O)[O-])cc1S(N)(=O)=O [Compound 1.9, 2-(3,3-dimethylbutylamino)-5-nitro-benzenesulfonamide] | 0% | –
6 | CCCCNc1ccc([N+](=O)[O-])cc1S(=O)(=O)NC [Compound 1.10, 2-(butylamino)-N-methyl-5-nitro-benzenesulfonamide] | 0% | –
7 | CCCCCCNc1ccc([N+](=O)[O-])cc1S(=O)(=O)NC [Compound 1.11, 2-(hexylamino)-N-methyl-5-nitro-benzenesulfonamide] | 0% | –
8 | CCCCCCCCNc1ccc([N+](=O)[O-])cc1S(=O)(=O)NC [Compound 1.12, N-methyl-5-nitro-2-(octylamino)benzenesulfonamide] | 0% | –
9 | CNS(=O)(=O)c1cc([N+](=O)[O-])ccc1NCCC(C)(C)C [Compound 1.13, 2-(3,3-dimethylbutylamino)-N-methyl-5-nitro-benzenesulfonamide] | 0% | –
10 | CCCCNc1ccc([N+](=O)[O-])cc1S(=O)(=O)N(C)C [Compound 1.14, 2-(butylamino)-N,N-dimethyl-5-nitro-benzenesulfonamide] | 0% | –
11 | CCCCCCNc1ccc([N+](=O)[O-])cc1S(=O)(=O)N(C)C [Compound 1.15, 2-(hexylamino)-N,N-dimethyl-5-nitro-benzenesulfonamide] | 0% | –
12 | CCCCCCCCNc1ccc([N+](=O)[O-])cc1S(=O)(=O)N(C)C [Compound 1.16, N,N-dimethyl-5-nitro-2-(octylamino)benzenesulfonamide] | 0% | –
13 | CN(C)S(=O)(=O)c1cc([N+](=O)[O-])ccc1NCCC(C)(C)C [Compound 1.17, 2-(3,3-dimethylbutylamino)-N,N-dimethyl-5-nitro-benzenesulfonamide] | 13% | –
14 | Furosemide [reference compound] | – | 0%

Now from value to compound, other results behind:

Row | inhibition at 10 µM | Compound | NKCC2 Inhibition % 10 μM Thallium Assay
15 | 0% | CCCCNc1cc(Cl)c(C(=O)O)cc1S(N)(=O)=O [Compound 2.2, 4-(butylamino)-2-chloro-5-sulfamoyl-benzoic acid] | –
16 | 14% | CCCCCCNc1cc(Cl)c(C(=O)O)cc1S(N)(=O)=O [Compound 2.3, 2-chloro-4-(hexylamino)-5-sulfamoyl-benzoic acid] | –
17 | 16% | CCCCCCCCNc1cc(Cl)c(C(=O)O)cc1S(N)(=O)=O [Compound 2.4, 2-chloro-4-(octylamino)-5-sulfamoyl-benzoic acid] | –
18 | 0% | CC(C)(C)CCNc1cc(Cl)c(C(=O)O)cc1S(N)(=O)=O [Compound 2.5, 2-chloro-4-(3,3-dimethylbutylamino)-5-sulfamoyl-benzoic acid] | –
19 | 0% | CCCCNc1ccc(C(=O)O)cc1S(N)(=O)=O [Compound 2.6, 4-(butylamino)-3-sulfamoyl-benzoic acid] | –
20 | 0% | CCCCCCNc1ccc(C(=O)O)cc1S(N)(=O)=O [Compound 2.7, 4-(hexylamino)-3-sulfamoyl-benzoic acid] | –
21 | 0% | CCCCCCCCNc1ccc(C(=O)O)cc1S(N)(=O)=O [Compound 2.8, 4-(octylamino)-3-sulfamoyl-benzoic acid] | –
22 | 23% | CC(C)(C)CCNc1ccc(C(=O)O)cc1S(N)(=O)=O [Compound 2.9, 4-(3,3-dimethylbutylamino)-3-sulfamoyl-benzoic acid] | –
23 | 22% | CCCCNc1ccc(C(=O)O)cc1S(=O)(=O)NC [Compound 3.6, 4-(butylamino)-3-(methylsulfamoyl)benzoic acid] | –
24 | 8% | CCCCCCNc1ccc(C(=O)O)cc1S(=O)(=O)NC [Compound 3.7, 4-(hexylamino)-3-(methylsulfamoyl)benzoic acid] | –
25 | 0% | CCCCCCCCNc1ccc(C(=O)O)cc1S(=O)(=O)NC [Compound 3.8, 3-(methylsulfamoyl)-4-(octylamino)benzoic acid] | –
26 | 12% | CNS(=O)(=O)c1cc(C(=O)O)ccc1NCCC(C)(C)C [Compound 3.9, 4-(3,3-dimethylbutylamino)-3-(methylsulfamoyl)benzoic acid] | –
27 | 0% | CCCCNc1ccc(C(=O)O)cc1S(=O)(=O)N(C)C [Compound 3.11, 4-(butylamino)-3-(dimethylsulfamoyl)benzoic acid] | –
28 | 29% | CCCCCCNc1ccc(C(=O)O)cc1S(=O)(=O)N(C)C [Compound 3.12, 3-(dimethylsulfamoyl)-4-(hexylamino)benzoic acid] | –
29 | 0% | CCCCCCCCNc1ccc(C(=O)O)cc1S(=O)(=O)N(C)C [Compound 3.13, 3-(dimethylsulfamoyl)-4-(octylamino)benzoic acid] | –
30 | 0% | CN(C)S(=O)(=O)c1cc(C(=O)O)ccc1NCCC(C)(C)C [Compound 3.14, 4-(3,3-dimethylbutylamino)-3-(dimethylsulfamoyl)benzoic acid] | –
31 | 0% | CN(C)S(=O)(=O)c1cc(C(=O)O)ccc1NCCCCCCCC(F)(F)F [Compound 3.17, 3-(dimethylsulfamoyl)-4-(8,8,8-trifluorooctylamino) benzoic acid] | –

Same assay, conditions: among compounds of the invention

Row | NKCC1/NKCC2 selectivity | Compound
32 | highest | CN(C)S(=O)(=O)c1cc(C(=O)O)ccc1NCCCCCCCC(F)(F)F [Compound 3.17, 3-(dimethylsulfamoyl)-4-(8,8,8-trifluorooctylamino) benzoic acid]

Same assay, conditions: pre-incubation 10 μM

Row | ion flux and consequent increase in fluorescence in NKCC2-transfected cells | Compound
33 | significantly reduced | CCCCNc1cc(C(=O)O)cc(S(N)(=O)=O)c1Oc1ccccc1 [Bumetanide, reference compound]
